Laboratory results taken from EPA's ToxRefDB 2.

Legend:
rat [1] = conditions: Subchronic oral toxicity in rodents, wistar, Gavage/Intubation, dose end: 90 day, group: systemic
rat [2] = conditions: Subchronic oral toxicity in rodents, wistar, Gavage/Intubation, dose end: 3 month, group: systemic
rat [3] = conditions: Peri- and post-natal toxicity study (Segment III); wistar; Injection; Intravenous; dose end: 21 PND; group: parental; systemic / in life observation / body weight / body weight gain + systemic / in life observation / clinical signs / motor activity + …
dog [4] = conditions: Chronic toxicity, beagle, Oral, Capsule, dose end: 6 month, group: systemic
rat [5] = conditions: Chronic toxicity, wistar, Oral, Gavage/Intubation, dose end: 6 month, group: systemic
rabbit = conditions: Prenatal developmental toxicity study, himalayan, Injection, Intravenous, dose end: 18 GD
rat [6] = conditions: Carcinogenicity, wistar, Oral, Gavage/Intubation, dose end: 24 month, group: systemic
dog [7] = conditions: Subchronic oral toxicity in nonrodent; beagle; Injection; Intravenous; dose end: 3 month; group: systemic; systemic / hematology / erythrocyte (rbc) count differential / erythrocyte (rbc) + systemic / hematology / hematocrit (hct) / hematocrit (…
dog [8] = conditions: Chronic toxicity, beagle, Oral, Feed, dose end: 104 week, group: systemic
rat [9] = conditions: Neurotoxicity screening battery; sprague dawley; Oral; Feed; dose end: 90 day; group: cannot be grouped; systemic / in life observation / body weight / body weight + systemic / in life observation / food consumption / food consumption + systemic…
rat [10] = conditions: Subchronic oral toxicity in rodents, fischer, Feed, dose end: 90 day, group: systemic, systemic / organ weight / kidney / absolute + systemic / organ weight / kidney / relative to body weight + systemic / pathology gross / …
rat [11] = conditions: Subchronic oral toxicity in rodents, sprague dawley, Feed, dose end: 90 day, group: systemic, systemic / organ weight / adrenal gland / absolute + systemic / organ weight / adrenal gland / relative to body weight + systemic / organ …
dog [12] = conditions: Chronic toxicity, beagle, Oral, Capsule, dose end: 52 week, group: systemic
rat [13] = conditions: Multigenerational reproductive toxicity study, sprague dawley, Oral, Feed, dose end: 2 generation
mouse [14] = conditions: Carcinogenicity; cd1; Oral; Feed; dose end: 18 month; group: systemic; systemic / pathology microscopic / stomach / hyperplasia
rat [15] = conditions: Sub-acute dermal toxicity, fischer, Topical, dose end: 21 day, group: systemic, systemic / in life observation / clinical signs / desquamation + systemic / pathology microscopic / skin / hyperkeratosis + systemic / …
mouse [16] = conditions: Combined chronic toxicity/carcinogenicity; cd1; Oral; Feed; dose end: 24 month; group: systemic; systemic / pathology microscopic / stomach / carcinoma + systemic / organ weight / kidney / nos + systemic / organ weight / ovary / relative…
mouse [17] = conditions: Carcinogenicity, cd1, Oral, Feed, dose end: 104 week, group: systemic
[18] = systemic / clinical chemistry / urea nitrogen / urea + systemic / hematology / blood clotting / blood clotting - clotting time + systemic / …
[19] = systemic / clinical chemistry / alkaline phosphatase (alp/alk) / alkaline phosphatase (alp/alk) + systemic / clinical chemistry / calcium / …
[20] = systemic / clinical chemistry / glucose / glucose + systemic / hematology / hemoglobin (hgb) / hemoglobin (hgb) + systemic / hematology / …
[21] = systemic / clinical chemistry / alanine aminotransferase (alt/sgpt) / alanine aminotransferase (alt/sgpt)
[22] = systemic / clinical chemistry / alanine aminotransferase (alt/sgpt) / alanine aminotransferase (alt/sgpt) + systemic / in life observation…
[23] = systemic / hematology / reticulocyte / reticulocyte + systemic / in life observation / clinical signs / teeth whitening + systemic / in life…
[24] = systemic / in life observation / clinical signs / tooth-broken
[25] = group: developmental, developmental / developmental malformation / general / crown-rump length + systemic / in life observation / body weight / fetal weight
[26] = group: maternal, systemic / in life observation / body weight / body weight gain + systemic / in life observation / clinical signs / [other] + systemic / in …
[27] = systemic / in life observation / clinical signs / salivation + systemic / organ weight / liver / relative to body weight + systemic / in …
[28] = systemic / pathology microscopic / stomach / neoplasm nos + systemic / hematology / hematocrit (hct) / hematocrit (hct) + systemic / …
[29] = systemic / clinical chemistry / bilirubin / total bilirubin
[30] = group: offspring, systemic / in life observation / body weight / offspring (pup) weight
[31] = group: parental, systemic / pathology microscopic / stomach / hyperkeratosis + systemic / pathology microscopic / stomach / hyperplasia + systemic / …
[32] = systemic / pathology microscopic / kidney / hyperplasia + systemic / pathology microscopic / stomach / carcinoma + systemic / pathology …

SMILES: CC(C)c1ccc(C(=O)N=C(N)N)cc1S(C)(=O)=O.CS(=O)(=O)O [Cariporide mesylate]
- LOAEL (rat [1]; [18]): 100 mg/kg/day
- NEL (rat [1]; [18]): 5 mg/kg/day
- NOAEL (rat [1]; [18]): 22 mg/kg/day
- LEL (rat [1]; systemic / organ weight / liver / relative to body weight): 22 mg/kg/day
- LOAEL (rat [2]; [19]): > 1000 mg/kg/day
- NOAEL (rat [2]; [19]): ≥ 1000 mg/kg/day
- LEL (rat [2]; [20]): 400 mg/kg/day
- NEL (rat [2]; [20]): < 400 mg/kg/day
- LEL (rat [3]): 125 mg/kg/day
- LOAEL (rat [3]): > 125 mg/kg/day
- NEL (rat [3]): 5 mg/kg/day
- NOAEL (rat [3]): ≥ 125 mg/kg/day
- LEL (dog [4]; [21]): 8 mg/kg/day
- LOAEL (dog [4]; [22]): > 20 mg/kg/day
- NEL (dog [4]; [22]): 3.2 mg/kg/day
- NOAEL (dog [4]; [22]): ≥ 20 mg/kg/day
- LOAEL (rat [5]; [23]): 25 mg/kg/day
- NOAEL (rat [5]; [23]): 5 mg/kg/day
- LEL (rat [5]; [24]): 5 mg/kg/day
- NEL (rat [5]; [24]): < 5 mg/kg/day
- LEL (rabbit; [25]): 40 mg/kg/day
- LOAEL (rabbit; [25]): > 40 mg/kg/day
- NEL (rabbit; [25]): 16 mg/kg/day
- NOAEL (rabbit; [25]): ≥ 40 mg/kg/day
- LOAEL (rabbit; [26]): > 40 mg/kg/day
- NEL (rabbit; [26]): 6.3 mg/kg/day
- NOAEL (rabbit; [26]): ≥ 40 mg/kg/day
- LEL (rabbit; group: maternal, systemic / in life observation / clinical signs / piloerection + systemic / in life observation / food consumption / food consumption): 16 mg/kg/day
- LEL (rat [6]; [27]): 12 mg/kg/day
- NEL (rat [6]; [27]): < 12 mg/kg/day
- LOAEL (rat [6]; [28]): > 400 mg/kg/day
- NOAEL (rat [6]; [28]): ≥ 400 mg/kg/day
- LEL (dog [7]): 1.25 mg/kg/day
- LOAEL (dog [7]): > 20 mg/kg/day
- NEL (dog [7]): < 1.25 mg/kg/day
- NOAEL (dog [7]): ≥ 20 mg/kg/day

SMILES: N#Cc1c(Cl)c(Cl)c(Cl)c(C#N)c1Cl [Chlorothalonil]
- LEL (dog [8]; [29]): 1.8 mg/kg/day
- NEL (dog [8]; [29]): < 1.8 mg/kg/day
- LOAEL (dog [8]; systemic / pathology microscopic / kidney / vacuolization + systemic / clinical chemistry / bilirubin / total bilirubin): 3.5 mg/kg/day
- NOAEL (dog [8]; systemic / pathology microscopic / kidney / vacuolization + systemic / pathology microscopic / kidney / pigmentation): 1.8 mg/kg/day
- LEL (rat [9]): 232 mg/kg/day
- LOAEL (rat [9]): 232 mg/kg/day
- NEL (rat [9]): 22 mg/kg/day
- NOAEL (rat [9]): 22 mg/kg/day
- LEL (rat [10]): 175 mg/kg/day
- LOAEL (rat [10]): 175 mg/kg/day
- NEL (rat [10]): < 175 mg/kg/day
- NOAEL (rat [10]): < 175 mg/kg/day
- LEL (rat [11]): 250 mg/kg/day
- LOAEL (rat [11]): 750 mg/kg/day
- NEL (rat [11]): < 250 mg/kg/day
- NOAEL (rat [11]): 250 mg/kg/day
- LEL (dog [12]; [21]): 15 mg/kg/day
- NEL (dog [12]; [21]): < 15 mg/kg/day
- LOAEL (dog [12]; systemic / in life observation / body weight / body weight gain): 500 mg/kg/day
- NOAEL (dog [12]; systemic / in life observation / body weight / body weight gain + systemic / clinical chemistry / alanine aminotransferase (alt/sgpt) / …): 150 mg/kg/day
- LEL (rat [13]; [30]): 38 mg/kg/day
- LOAEL (rat [13]; [30]): 234 mg/kg/day
- NEL (rat [13]; [30]): < 38 mg/kg/day
- NOAEL (rat [13]; [30]): 115 mg/kg/day
- LEL (rat [13]; [31]): 38 mg/kg/day
- LOAEL (rat [13]; [31]): 38 mg/kg/day
- NEL (rat [13]; [31]): < 38 mg/kg/day
- NOAEL (rat [13]; [31]): < 38 mg/kg/day
- LEL (mouse [14]): 1.9 mg/kg/day
- LOAEL (mouse [14]): 1.9 mg/kg/day
- NEL (mouse [14]): < 1.9 mg/kg/day
- NOAEL (mouse [14]): < 1.9 mg/kg/day
- LEL (rat [15]): 60 mg/kg/day
- LOAEL (rat [15]): 60 mg/kg/day
- NEL (rat [15]): < 60 mg/kg/day
- NOAEL (rat [15]): < 60 mg/kg/day
- LEL (mouse [16]): 112 mg/kg/day
- LOAEL (mouse [16]): 112 mg/kg/day
- NEL (mouse [16]): < 112 mg/kg/day
- NOAEL (mouse [16]): < 112 mg/kg/day
- LOAEL (mouse [17]; systemic / pathology microscopic / kidney / hyperplasia): 26.2 mg/kg/day
- NEL (mouse [17]; [32]): 1.5 mg/kg/day
- NOAEL (mouse [17]; [32]): 6 mg/kg/day
- LEL (mouse [17]; systemic / pathology microscopic / stomach / hyperkeratosis + systemic / pathology microscopic / stomach / hyperplasia): 6 mg/kg/day
